Measured values taken from patent US20130072517A1 (Avanir Pharmaceuticals, Inc., priority 2002, published 2013).

Experiments:
[1] = Clinical Study #5: concentrations in plasma of DM, DX and Q and correlation with pain intensity; type: in vivo, human; conditions: final visit; for Concentration in plasma, Mean / Concentration in plasma, Median: extensive metabolizers
Experimental: Subjects visited the clinic every two weeks during the four-week duration of the study and were contacted by telephone during weeks without clinic visits. At each subsequent study visit or weekly phone call, the subjects were given the Pain Intensity Rating Scale and the Pain Relief Rating Scale and were queried regarding any adverse events that might have occurred since their previous visit. Subjects were administered the Peripheral Neuropathy Quality of Life (QOL) Instrument on Days 1 and 29 (or the final visit). Blood samples were taken at the visits on Day 15 and Day 29 to determine concentrations in plasma of DM, DX, and Q.

[2] = Clinical Study #1: adverse events in dextromethorphan phenotyping and quinidine dose determination study; conditions: single oral dose 30 mg capsule; headache, mild
Experimental: A phenotyping study directed to dextromethorphan was conducted. The study was an open-label single dose study. Subjects were screened to ensure they met the inclusion and exclusion criteria. Subjects received a single oral dose of dextromethorphan hydrobromide 30 mg capsule taken with 240 mL of tap water. A total of fifty-eight subjects were screened and fifty subjects dosed. The study determined each subject's ability to metabolize dextromethorphan. Subjects who met the inclusion/exclusion criteria remained in house for dosing. Each subject was administered one 30 mg capsule (P.M.) of dextromethorphan. Urine was collected predose through 12 hours postdose and analyzed for dextromethorphan and dextrorphan.
The study was an open-label, randomized, multiple dose study. Subjects identified as extensive metabolizers received an evening dose on Day 1, at 12-hour intervals for the next six days, with a final morning dose on Day 8. All subjects were instructed to dose themselves at home on eight occasions with medication dispensed to them. Subjects maintained a diary during the study to record adverse effects. […]
A total of eight blood samples (40 mL) were drawn during the study (including the dextromethorphan screen) for drug analysis. […] At the end of the interval, the total volume was recorded and two aliquots were frozen at −20° C. until assayed for dextromethorphan and dextrorphan.

[3] = Clinical Study #4: concentrations of DM, DX and Q in plasma on Day 29; type: in vivo, human; conditions: blood collection within 8 hours of last dose
Experimental: Values were obtained for systolic and diastolic blood pressure, heart rate, and respiration rate on the screening visit and all other study visits. All values outside the pre-defined ranges were flagged in the subject data listings. Electrocardiography (twelve lead) was used to obtain ventricular rate (VR), QT, Q-Tc intervals, […] (PR), and QRS duration. A blood sample (10 mL whole blood) was taken from each subject at the Screening Visit for CYP2D6 genotyping to determine which subjects were poor metabolizers of DM and which were extensive metabolizers. Blood samples were taken on Day 29 for the determination of concentrations of DM, DX, and Q in plasma. The relationship between the concentration of drug in plasma and changes in CNS-LS scores was determined, and the effect of the CYP2D6 genotype on this relationship was evaluated.
Q in this combination product inhibits the rapid first-pass metabolism of DM.

[4] = Clinical Study #2: plasma pharmacokinetics of dextromethorphan, dextrorphan and quinidine, single and multiple dose; conditions: for AUC(0-t) / Cmax / half-life / Tmax: human, in vivo, mean, 30 mg DM HBr/25 mg Q sulfate capsule every 12 hours; for AUC(0-t): AUC (0-12) (plasma); for Cmax: Cmax (plasma); for half-life: T ½ el (plasma); for Tmax: Tmax (plasma)
Experimental: Descriptive statistics for each parameter, including mean, median, standard deviation, coefficient of variation, N, minimum, and maximum were calculated for all of the subjects by Day. In addition, descriptive statistics were presented by the subgroups: extensive metabolizer (EM) and poor metabolizer (PM).
The ANOVA model included the factors group (EM or PM), subject within group, day, and the interaction term day by group. The group effect was tested using the subject within group mean square, and all other main effects were tested using the residual error (error mean square). In addition, tests of the hypotheses Day 1=Day 4, Day 1=Day 8, and Day 4=Day 8 were performed.

[5] = tested on: ALS subjects with pseudobulbar affect; assay: Clinical Study #4: CNS-LS score (primary efficacy); type: in vivo, human; conditions: for Difference vs 30DM/30Q, mean difference in the CNS-LS reduction: controlling for baseline CNS-LS and study site
Text: This was a multicenter, randomized, double-blind, controlled, parallel-group study. All study drugs were self-administered orally every twelve hours for twenty-eight days. The study included a screening visit and three other clinic visits on Days 1, 15, and 29. Day 29 was the last day the subject was on study and could occur anywhere between the morning of Day 26 and the morning of Day 32.
Subjects with clinically diagnosed pseudobulbar affect were screened for general health within four weeks before entry into the study. All eligible subjects had attained a score of 13 or above on the Center for Neurologic Study-Lability Scale (CNS-LS) at the clinic visit on Day 1.
Diary cards were collected on Day 15 and at the time of study completion.
Subjects completed the CNS-LS questionnaire and visual analog scales assessing quality of life (QOL) and quality of relationships (QOR) every two weeks (Days 1, 15, and 29) during the treatment period. A clinical psychologist, or other approved clinician, administered the Hamilton Rating Scale for Depression (HRSD) at the Screening Visit and on Day 29. Safety was evaluated on Day 15 and Day 29 by examining adverse events, results of physical examinations, vital signs, clinical laboratory values, and resting electrocardiograms (ECGs). In addition to blood samples taken to provide clinical laboratory data, blood was also taken for pharmacokinetic analysis and CYP2D6 genotyping. Each subject completed a diary in which the number of episodes experienced, medications taken, and any adverse events were recorded daily.
The primary efficacy variable was the CNS-LS score. All efficacy variables involving a change were determined by the baseline score being subtracted from the mean of the non-missing scores on Days 15 and 29. The secondary efficacy variables were laughing/crying episodes, QOL scores, and QOR scores. […]
The CNS-LS questionnaire used to assess primary efficacy is a seven-item self-report measure that provides a score for total pseudobulbar affect; it required approximately five minutes for the subject to complete. The range of possible scores was 7 to 35. […] This questionnaire is the only instrument for the measurement of pseudobulbar affect validated for use with ALS subjects.
The primary efficacy analysis was the change from baseline in CNS-LS scores, adjusted for center and baseline CNS-LS score. The descriptive statistics for the ITT Population are in Table 29.
These distributions have not been adjusted for baseline scores or for study site. […] As prospectively specified in the protocol, the differences in mean improvement in CNS-LS scores, adjusted for center and baseline CNS-LS scores, were analyzed by using linear regression according to the ANCOVA method of Frison and Pocock.

[6] = ITT population, mean of scores on Day 15 and Day 29 minus baseline (Day 1) score

COc1ccc2c(c1)[C@]13CCCCC1[C@H](C2)N(C)CC3 (single isomer, unassigned; (+)) [Dextromethorphan, (+)-3-methoxy-N-methylmorphinan]
Concentration in plasma, Mean ([1]; DM/Q MTD 30 mg): 0.059 µg/mL | Concentration in plasma, Median ([1]; DM/Q MTD 30 mg): 0.0674 µg/mL | Concentration in plasma, Mean ([1]; DM/Q MTD 60 mg): 0.0462 µg/mL | Concentration in plasma, Median ([1]; DM/Q MTD 60 mg): 0.0015 µg/mL | Concentration in plasma, Mean ([1]; DM/Q MTD 90 mg): 0.117 µg/mL | Concentration in plasma, Median ([1]; DM/Q MTD 90 mg): 0.117 µg/mL | Concentration in plasma, Mean ([1]; DM/Q MTD 120 mg): 0.1926 µg/mL | Concentration in plasma, Median ([1]; DM/Q MTD 120 mg): 0.178 µg/mL | Concentration in plasma, Mean ([1]; Total, all MTDs): 0.1537 µg/mL | Concentration in plasma, Median ([1]; Total, all MTDs): 0.1445 µg/mL | Concentration in plasma ([1]; poor metabolizer (MTD of 60 mg)): 0.1264 µg/mL | Adverse effects reported during the phenotyping study [2]: One | concentration of DM in plasma, Max [3]: 15.81 | concentration of DM in plasma, Mean [3]: 5.18 | concentration of DM in plasma, Median [3]: 4.55 | concentration of DM in plasma, Min [3]: 0.35 | AUC(0-t) ([4]; Day 1, All Subjects): 0.148 µg·h/mL | AUC(0-t) ([4]; Day 1, EM): 0.133 µg·h/mL | AUC(0-t) ([4]; Day 1, PM): 0.198 µg·h/mL | AUC(0-t) ([4]; Day 4, All Subjects): 0.886 µg·h/mL | AUC(0-t) ([4]; Day 4, EM): 0.812 µg·h/mL | AUC(0-t) ([4]; Day 4, PM): 1.15 µg·h/mL | AUC(0-t) ([4]; Day 8, All Subjects): 1.16 µg·h/mL | AUC(0-t) ([4]; Day 8, EM): 1.05 µg·h/mL | AUC(0-t) ([4]; Day 8, PM): 1.53 µg·h/mL | Cmax ([4]; Day 1, All Subjects): 0.0173 µg/mL | Cmax ([4]; Day 1, EM): 0.0159 µg/mL | Cmax ([4]; Day 1, PM): 0.0223 µg/mL | Cmax ([4]; Day 4, All Subjects): 0.0831 µg/mL | Cmax ([4]; Day 4, EM): 0.0767 µg/mL | Cmax ([4]; Day 4, PM): 0.106 µg/mL | Cmax ([4]; Day 8, All Subjects): 0.105 µg/mL | Cmax ([4]; Day 8, EM): 0.0955 µg/mL | Cmax ([4]; Day 8, PM): 0.136 µg/mL | half-life ([4]; Day 8, All Subjects): 20.3 h | half-life ([4]; Day 8, EM): 13.1 h | half-life ([4]; Day 8, PM): 42 h | Tmax ([4]; Day 1, All Subjects): 7.11 h | Tmax ([4]; Day 1, EM): 6.85 h | Tmax ([4]; Day 1, PM): 8 h | Tmax ([4]; Day 4, All Subjects): 5.55 h | Tmax ([4]; Day 4, EM): 5.42 h | Tmax ([4]; Day 4, PM): 6 h | Tmax ([4]; Day 8, All Subjects): 5.77 h | Tmax ([4]; Day 8, EM): 5.99 h | Tmax ([4]; Day 8, PM): 4.99 h | Fold increase in AUC (0-12) from Day 1 to Day 8 ([4]; poor metabolizers): 6.1 fold | Difference vs 30DM/30Q, mean difference in the CNS-LS reduction ([5]; Efficacy Evaluable Population (n = 101)): −3.78 | Difference vs 30DM/30Q, mean difference in the CNS-LS reduction ([5]; ITT Population (n = 125)): −3.29 | Change in CNS-LS scores, Max [5, 6]: 2.0 | Change in CNS-LS scores, Mean [5, 6]: −5.12 | Change in CNS-LS scores, Median [5, 6]: −4.50 | Change in CNS-LS scores, Min [5, 6]: −25.00 | Difference vs 30DM/30Q, mean difference in the CNS-LS reduction ([5]; Safety Population (n = 136)): −3.09
